Laboratory results taken from patent US12171756B2, “NLRP3 modulators” (Innate Tumor Immunity, Inc., priority 2017, dated 2024).
Like-named read-outs stand apart in the source and are kept apart here.

Key:
[1] = test system: IL-1β production in PMA-differentiated THP-1 cells; assay: Measurement of IL-1β production in PMA-differentiated THP-1 cells (ELISA, 4 hours); type: cell-based, human; settings: assayed using one or more of the described procedures, read-out: NLRP3 hIL1B IC50
Method: Measurement of IL-1β Production in PMA-Differentiated THP-1 Cells THP-1 cells were purchased from the American Type Culture Collection and sub-cultured according to instructions from the supplier. Prior to experiments, cells were cultured in RPMI 1640 containing 10% heat inactivated FBS, penicillin (100 units/ml) and streptomycin (100 μg/ml), and maintained in log phase prior to experimental setup. Prior to the experiment THP-1 were treated with PMA (Phorbol 12-myristate 13-acetate) (10 μg/ml) for 24 hours. The day of the experiment the media was removed and attaching cells were treated with trypsin for 2 minutes, cells were then collected, washed with PBS (phosphate buffer saline), spin down, resuspended in 2% heat inactivated FBS with RPMI at a concentration of 1×10^6 cells/ml, and 100 μl was plated in a 96 well plate. Compounds were dissolved in dimethyl sulfoxide (DMSO) and added to the culture medium to achieve desired concentration (e.g. 100, 30, 10, 3, 1, 0.3 or 0.1 μM). Cells were incubated with compounds for 4 hours. Cell free supernatant was collected and the production of IL-1β was evaluated by ELISA. A vehicle only control was run concurrently with each experiment. Final DMSO concentration was 1%.

[2] = target: T1, human TLR8 (Homo sapiens, UniProt Q9NR97); assay: In vitro human TLR8 binding reporter assay (HEK-Blue, NF-kB/AP1-inducible SEAP); type: cell-based; settings: HEK-Blue human TLR8 SEAP reporter cells; activity range classes; read-out: TLR8 Agonist EC50
T1 construct: host or cells: human HEK-Blue cells (HEK293-derived) co-expressing TLR8 and an NF-kB/AP1-inducible SEAP reporter
T1 sequence (Q9NR97 27-1041): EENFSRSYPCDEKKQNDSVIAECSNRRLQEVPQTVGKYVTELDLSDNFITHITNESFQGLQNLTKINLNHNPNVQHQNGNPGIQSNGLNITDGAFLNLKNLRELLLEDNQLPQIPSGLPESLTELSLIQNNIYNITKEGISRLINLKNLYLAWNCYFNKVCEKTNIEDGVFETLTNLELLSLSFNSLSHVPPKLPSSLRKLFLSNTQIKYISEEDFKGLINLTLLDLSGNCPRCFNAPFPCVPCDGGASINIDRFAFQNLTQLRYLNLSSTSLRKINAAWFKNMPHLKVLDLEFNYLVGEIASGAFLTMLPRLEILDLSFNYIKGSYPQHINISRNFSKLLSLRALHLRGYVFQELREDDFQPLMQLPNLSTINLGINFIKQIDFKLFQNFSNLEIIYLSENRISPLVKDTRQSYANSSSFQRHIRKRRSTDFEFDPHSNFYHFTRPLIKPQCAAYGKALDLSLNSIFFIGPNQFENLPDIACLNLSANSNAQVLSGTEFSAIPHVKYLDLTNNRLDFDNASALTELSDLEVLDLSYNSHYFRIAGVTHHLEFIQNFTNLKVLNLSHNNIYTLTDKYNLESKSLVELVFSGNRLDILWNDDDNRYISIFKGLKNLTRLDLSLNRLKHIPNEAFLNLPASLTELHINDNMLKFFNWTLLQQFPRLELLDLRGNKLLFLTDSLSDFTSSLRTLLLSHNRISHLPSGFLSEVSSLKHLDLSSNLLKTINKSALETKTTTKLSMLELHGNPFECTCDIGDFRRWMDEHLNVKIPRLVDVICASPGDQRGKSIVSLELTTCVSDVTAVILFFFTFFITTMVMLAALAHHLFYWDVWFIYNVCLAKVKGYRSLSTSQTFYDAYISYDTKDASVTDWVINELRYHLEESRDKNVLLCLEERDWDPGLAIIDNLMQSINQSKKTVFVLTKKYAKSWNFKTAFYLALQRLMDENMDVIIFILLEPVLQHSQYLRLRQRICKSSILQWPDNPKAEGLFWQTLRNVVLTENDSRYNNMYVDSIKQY
Method: (§1) In Vitro Human TLR7 and TLR8 Binding Reporter Assays
(§2) Logarithmically-growing human HEK-Blue cells co-expressing a TLR7 or TLR8 gene and a NF-kB/AP1-inducible SEAP (secreted embryonic alkaline phosphatase; Invivogen, San Diego, CA) reporter gene are added to individual wells of a 384-well plate (15,000 cells per 20 μL per well) and maintained for 24 h at 37° C., 5% CO2. Test compounds or DMSO are distributed to separate wells the next day using acoustic liquid handling technology (100 nL per well) and cells are subsequently incubated for 18 h at 37° C., 5% CO2. Cellular SEAP production is measured using an Envision plate reader instrument thirty minutes after adding freshly-made Quanti-Blue reagent (prepared by following manufacturer instructions; Invivogen, San Diego, CA) to the HEK-Blue TLR Nf-kB-SEAP cell reactions. All EC50 values (half-maximal effective concentration) are determined using proprietary data analysis software. Normalized EC50 value=absolute value determined by setting 100% Ymax using a reference standard RLU (relative light unit) values from cells treated with 50 μM of the reference standard.

[3] = target: T2, human TLR7 (Homo sapiens, UniProt Q9NYK1); assay: In vitro human TLR7 binding reporter assay (HEK-Blue, NF-kB/AP1-inducible SEAP); type: cell-based; settings: HEK-Blue human TLR7 SEAP reporter cells; activity range classes; read-out: TLR7 Agonist EC50
T2 construct: host or cells: human HEK-Blue cells (HEK293-derived) co-expressing TLR7 and an NF-kB/AP1-inducible SEAP reporter
T2 sequence (Q9NYK1 27-1049): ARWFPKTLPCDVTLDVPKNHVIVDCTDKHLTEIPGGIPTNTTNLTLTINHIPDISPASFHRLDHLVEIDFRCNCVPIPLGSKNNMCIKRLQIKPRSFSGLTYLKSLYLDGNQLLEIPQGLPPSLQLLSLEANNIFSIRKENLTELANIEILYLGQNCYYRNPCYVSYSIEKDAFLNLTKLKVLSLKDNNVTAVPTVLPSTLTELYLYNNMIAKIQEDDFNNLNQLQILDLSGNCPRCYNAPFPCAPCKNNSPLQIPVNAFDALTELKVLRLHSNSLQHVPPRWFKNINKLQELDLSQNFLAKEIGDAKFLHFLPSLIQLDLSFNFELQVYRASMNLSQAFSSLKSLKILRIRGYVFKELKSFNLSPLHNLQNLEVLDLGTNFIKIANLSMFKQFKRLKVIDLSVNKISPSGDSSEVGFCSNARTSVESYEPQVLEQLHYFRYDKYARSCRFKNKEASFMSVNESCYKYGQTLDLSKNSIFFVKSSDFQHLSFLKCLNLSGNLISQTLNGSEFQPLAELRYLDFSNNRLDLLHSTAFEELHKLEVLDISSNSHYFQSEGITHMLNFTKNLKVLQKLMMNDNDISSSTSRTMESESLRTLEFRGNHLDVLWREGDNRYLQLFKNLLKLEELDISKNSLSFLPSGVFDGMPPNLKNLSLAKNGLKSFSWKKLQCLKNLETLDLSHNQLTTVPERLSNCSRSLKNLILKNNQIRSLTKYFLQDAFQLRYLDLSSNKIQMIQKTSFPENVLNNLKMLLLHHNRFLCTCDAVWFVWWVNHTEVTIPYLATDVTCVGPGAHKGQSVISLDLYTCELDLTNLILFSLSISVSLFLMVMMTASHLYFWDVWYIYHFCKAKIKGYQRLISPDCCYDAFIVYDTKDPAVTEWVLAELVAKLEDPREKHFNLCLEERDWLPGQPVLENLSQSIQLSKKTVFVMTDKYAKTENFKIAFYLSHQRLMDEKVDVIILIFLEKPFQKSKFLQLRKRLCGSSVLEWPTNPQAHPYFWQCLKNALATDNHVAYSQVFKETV
Method: as §1, §2

[4] = Homo sapiens, THP-1, human IL-1β production

Compound	IC50 [1, 4] [nM]	EC50 [2] [µM]	EC50 [3] [µM]	IC50 ([1]; human IL-1β production) [nM]
Nc1cc(N[C@H]2CCCC[C@H]2O)c2ccc(-c3ccn[nH]3)cc2n1 (racemic) [Compound 157]	–	> 100	> 100	730
Nc1cc(N[C@H]2CC[C@H](O)C2)c2ccc(-c3ccn[nH]3)cc2n1 [Compound 246]	170	> 100	> 100	–
Nc1cc(NCc2cccnc2)c2ccc(-c3ccn[nH]3)cc2n1 [Compound 150]	220	> 100	> 100	–
Nc1cc(NCc2cccnn2)c2ccc(-n3cccn3)cc2n1 [Compound 309]	420	> 100	> 100	–
Nc1cc(NCCc2ncn[nH]2)c2ccc(-c3ccn[nH]3)cc2n1 [Compound 224]	220	> 100	> 100	–
Nc1cc(NCCC2CCOCC2)c2ccc(-c3cc[nH]n3)cc2n1 [Compound 344, 7-(1H-pyrazol-3-yl)-N4-(2-(tetrahydro-2H-pyran-4-yl)ethyl)quinoline-2,4-diamine]	1110	> 100	> 100	–
Nc1cc(NCc2cncs2)c2ccc(-c3ccn[nH]3)cc2n1 [Compound 244]	350	> 100	> 100	–
Nc1cc(N2CC(F)(F)C2)c2ccc(-c3ccn[nH]3)cc2n1 [Compound 271]	360	> 100	> 100	–
CC(=O)N[C@H]1CCN(c2cc(N)nc3cc(-c4ccn[nH]4)ccc23)C1 [Compound 158]	35800	> 100	> 100	–
Nc1cc(NCCc2cnc[nH]2)c2ccc(-c3ccn[nH]3)cc2n1 [Compound 225]	130	> 100	> 100	–
CS(=O)(=O)NCCNc1cc(N)nc2cc(-c3ccn[nH]3)ccc12 [Compound 206, N-(2-((2-amino-7-(1H-pyrazol-5-yl)quinolin-4-yl)amino)ethyl)methanesulfonamide]	840	> 100	> 100	–
Nc1cc(NCc2cnc[nH]2)c2ccc(-c3ccn[nH]3)cc2n1 [Compound 159]	520	> 100	> 100	–
Nc1cc(OC2CCOCC2)c2ccc(-c3ccn[nH]3)cc2n1 [Compound 186]	1080	> 100	> 100	–
Nc1cc(NCc2ccncc2)c2ccc(-c3ccn[nH]3)cc2n1 [Compound 148]	1640	> 100	> 100	–
Nc1cc(NCCc2ccccn2)c2ccc(-c3ccn[nH]3)cc2n1 [Compound 151]	310	> 100	> 100	–
Nc1cc(NCC2COCCO2)c2ccc(-c3ccn[nH]3)cc2n1 (stereo not drawn) [Compound 266]	390	> 100	> 100	–

Continued, values first:

IC50 [1, 4] [nM]	EC50 [2] [µM]	EC50 [3] [µM]	IC50 ([1]; human IL-1β production) [nM]	Compound
620	> 100	> 100	–	Nc1cc(NCCc2cccnn2)c2ccc(-c3ccsc3)cc2n1 [Compound 341, N4-(2-(pyridazin-3-yl)ethyl)-7-(thiophen-3-yl)quinolin-2,4-diamine]
110	> 100	> 100	–	CC(C)(CO)COc1cc(N)nc2cc(-c3ccn[nH]3)ccc12 [Compound 310]
440	> 100	> 100	–	Nc1cc(NCC(O)c2cccnc2)c2ccc(-c3ccn[nH]3)cc2n1 (stereo not drawn) [Compound 154]
4660	> 100	> 100	–	Nc1cc(NCC2CCNC2)c2ccc(-c3ccn[nH]3)cc2n1 (stereo not drawn) [Compound 327]
13500	> 100	> 100	–	Nc1cc(NCCCNC(=O)c2ccncc2)c2ccc(-c3ccn[nH]3)cc2n1 [Compound 211]
1180	> 100	> 100	–	Nc1cc(-c2cn[nH]c2)c2ccc(-c3ccn[nH]3)cc2n1 [Compound 347, 4-(1H-pyrazol-4-yl)-7-(1H-pyrazol-5-yl)quinolin-2-amine]
990	> 100	> 100	–	Nc1cc(NCC2(O)CC2)c2ccc(-c3ccn[nH]3)cc2n1 [Compound 147]
170	> 100	> 100	–	Nc1cc(NC2CCC2)c2ccc(-c3ccn[nH]3)cc2n1 [Compound 273]
480	> 100	> 100	–	Nc1cc(NCCCCO)c2ccc(-c3ccn[nH]3)cc2n1 [Compound 144]
210	> 100	> 100	–	COCC(O)CNc1cc(N)nc2cc(-c3ccn[nH]3)ccc12 (stereo not drawn) [Compound 254]
560	> 100	> 100	–	Nc1cc(NCCO)c2ccc(-n3cccn3)cc2n1 [Compound 296]
25700	> 100	> 100	–	Cc1cc2c(NCCCO)cc(N)nc2cc1-c1ccn[nH]1 [Compound 319]
1020	> 100	> 100	–	Cn1cnc(CNc2cc(N)nc3cc(-c4ccn[nH]4)ccc23)c1 [Compound 243]
